Data from US20230407243A1, “GENETIC PLATFORM TO INVESTIGATE THE FUNCTIONS OF BACTERIAL DRUG EFFLUX PUMPS” (priority 2022, published 2023).
Read-outs that look alike come from different tables or passages of the source.

Legend:
Format in all cases: cell-based, Escherichia coli
[1] = tested on: wild-type (WT) K-12-Pore; test: microbe, parasite or virus in culture; details: Escherichia coli, technical duplicate
Outline: (§1)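 MIC values come from background-corrected OD600 readings (pre-incubation OD subtracted) after 18 h at 37 °C and 900 rpm in MHB II. Compounds were tested in duplicate as 2-fold dilutions. The inoculum came from 18 h LB cultures adjusted to OD600 ~1.0 and diluted 1/2000, and the pore-bearing strains were vancomycin-checked beforehand.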

[2] = tested on: ΔtolC-Pore; test: microbe, parasite or virus in culture; details: for MIC: Escherichia coli, 18 h, read-out: Minimum inhibitory concentration, ΔtolC-Pore; for Minimum inhibitory concentration (MIC), Pore ΔtolC: Table 10, with pore, technical duplicate
Outline: as §1

[3] = tested on: EKO-35 araC::acrB; test: MIC susceptibility profiling, efflux platform; details: for MIC: Escherichia coli, Table 13A, non-porinated, technical duplicate, read-out: Minimum Inhibitory Concentration, EKO-35 araC::acrB; for Fold change of MICs: EKO-35 araC::acrB compared to EKO-35
Outline: (§2)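 Steps: LB overnight culture at 37 °C; resuspension in PBS to OD600 ~1.0; 1/2000 dilution in MHB II; addition to 2-fold serial compound dilutions (duplicate); 18 h shaking incubation at 37 °C; OD600 read, with pre-read subtracted.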

[4] = tested on: EKO-35 araC::mdtEF; test: MIC susceptibility profiling, efflux platform; details: for MIC: Escherichia coli, Table 13A, non-porinated, technical duplicate, read-out: Minimum Inhibitory Concentration, EKO-35 araC::mdtEF; for Fold change of MICs: EKO-35 araC::mdtEF compared to EKO-35
Outline: as §2

[5] = tested on: EKO-35-Pore; test: MIC susceptibility profiling, porinated strain; details: for MIC: Escherichia coli, technical duplicate; for Fold changes of MICs: EKO-35-Pore compared to EKO-35-Pore (reference)
Outline: as §1

[6] = tested on: wild-type E. coli K-12 str. BW25113; test: microbe, parasite or virus in culture; details: Escherichia coli, BW25113, technical duplicate
Outline: as §2

[7] = tested on: E. coli EKO-35; test: microbe, parasite or virus in culture; details: for MIC: Escherichia coli, EKO35, technical duplicate; for Fold change of MICs: EKO-35 compared to EKO-35 (reference)
Outline: as §2

[8] = tested on: E. coli ΔtolC; test: microbe, parasite or virus in culture; details: for MIC: Escherichia coli, 18 h, read-out: Minimum Inhibitory Concentration, ΔtolC; for Minimum inhibitory concentration (MIC), ΔtolC: Table 10, without pore, technical duplicate
Outline: as §2

[9] = tested on: EKO-35 strains producing different efflux pumps (EKO-35 araC::X); test: Checkerboard synergy (FICI) of PAβN or NMP with antibiotics
Outline: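 Inocula prepared from resuspended colonies were exposed to PAβN or NMP combined with antibiotics in MHB II checkerboards. Growth was scored by OD600 to define MICs. FICI then classified the interaction, with values under 0.5 counted as synergistic.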

[10] = Table 10, with pore, read-out: Minimum inhibitory concentration (MIC), Pore K-12
[11] = Table 14A, porinated, read-out: Minimum inhibitory concentration, K-12 (WT)-Pore
[12] = Table 10, with pore, read-out: Minimum inhibitory concentration (MIC), Pore EKO-35
[13] = Table 14A, porinated, read-out: Minimum inhibitory concentration, EKO-35-Pore
[14] = Table 10, without pore, read-out: Minimum inhibitory concentration (MIC), K-12
[15] = Table 13A, non-porinated, read-out: Minimum Inhibitory Concentration, K-12
[16] = Table 10, without pore, read-out: Minimum inhibitory concentration (MIC), EKO-35
[17] = Table 13A, non-porinated, read-out: Minimum Inhibitory Concentration, EKO-35
[18] = EKO-35 acrB, antibiotic in combination with PAβN
[19] = EKO-35 acrD, antibiotic in combination with PAβN
[20] = EKO-35 acrEF, PAβN + antibiotic
[21] = EKO-35 acrEF, antibiotic alone (PAβN checkerboard)
[22] = EKO-35 acrEF, antibiotic in combination with PAβN
[23] = strain EKO-35 acrB, NMP + antibiotic
[24] = strain EKO-35 acrB, antibiotic in combination with NMP
[25] = strain EKO-35 acrD, NMP + antibiotic
[26] = strain EKO-35 acrD, antibiotic in combination with NMP
[27] = strain EKO-35 acrEF, NMP + antibiotic
[28] = strain EKO-35 acrEF, antibiotic alone
[29] = strain EKO-35 acrEF, antibiotic in combination with NMP
[30] = EKO-35 mdtEF, PAβN + antibiotic

Cc1onc(-c2ccccc2)c1C(=O)N[C@@H]1C(=O)N2[C@@H]1SC(C)(C)[C@@H]2C(=O)O [oxacillin] gave an MIC [1, 10] of 40 µg/mL, an MIC [1, 11] of 40 µg/mL and an MIC [2] of 0.313 µg/mL. The “Minimum inhibitory concentration (MIC), Pore ΔtolC” value [2] was 0.313 µg/mL, the MIC [3] was 160 µg/mL and the MIC [4] was 20 µg/mL. It also gave an MIC [5, 12] of 0.313 µg/mL, an MIC [5, 13] of 0.313 µg/mL and an MIC [6, 14] of 160 µg/mL. For the same compound, the MIC [6, 15] was 160 µg/mL, the MIC [7, 16] was 0.625 µg/mL and the MIC [7, 17] was 0.625 µg/mL. For the same compound, the MIC [8] was 0.625 µg/mL, the “Minimum inhibitory concentration (MIC), ΔtolC” value [8] was 0.625 µg/mL and the Effect ([9]; EKO-35 acrB, NMP + antibiotic) was “Additive”. The Effect ([9]; EKO-35 acrB, PAβN + antibiotic) was “Synergistic”, the FICI ([9]; EKO-35 acrB, PAβN + antibiotic) was 0.125 and the “MICb Alone” value ([9]; EKO-35 acrB, antibiotic alone (PAβN checkerboard)) was 1024 µg/mL. For the same compound, the “MICb Combined” value [9, 18] was 64 µg/mL, the Effect ([9]; EKO-35 acrD, NMP + antibiotic) was “Additive” and the FICI ([9]; EKO-35 acrD, NMP + antibiotic) was 0.750. The Effect ([9]; EKO-35 acrD, PAβN + antibiotic) was “Synergistic”, the FICI ([9]; EKO-35 acrD, PAβN + antibiotic) was 0.156 and the “MICb Combined” value [9, 19] was 16 µg/mL. The Effect ([9]; EKO-35 acrEF, NMP + antibiotic) was “Synergistic”, the Effect [9, 20] was “Synergistic” and the FICI [9, 20] was 0.133. The “MICb Alone” value [9, 21] was 256 µg/mL, the “MICb Combined” value [9, 22] was 2 µg/mL and the Effect [9, 23] was “Additive (additive (FICI >0.5-1.0))”. The “MICb Combined” value [9, 24] was 16 µg/mL, the Effect [9, 25] was “Additive (additive (FICI >0.5-1.0))” and the FICI [9, 25] was 0.750. For the same compound, the “MICb Combined” value [9, 26] was 32 µg/mL, the Effect [9, 27] was “Synergistic (Synergy (FICI ≤0.5))” and the “MICb Alone” value [9, 28] was 256 µg/mL. For the same compound, the “MICb Combined” value [9, 29] was 64 µg/mL.

CC(=O)O[C@H]1C[C@@]2(C)[C@@H](C[C@@H](O)[C@H]3[C@@]4(C)CC[C@@H](O)[C@@H](C)[C@@H]4CC[C@@]32C)/C1=C(\CCC=C(C)C)C(=O)O [fusidic acid] gave an MIC [1, 10] of 100 µg/mL, an MIC [1, 11] of 100 µg/mL and an MIC [2] of 0.391 µg/mL. The “Minimum inhibitory concentration (MIC), Pore ΔtolC” value [2] was 0.391 µg/mL, the “Fold change of MICs” value [3] was 128 fold and the MIC [3] was 400 µg/mL. The “Fold change of MICs” value [4] was 16 fold, the MIC [4] was 50 µg/mL and the “Fold changes of MICs” value [5] was 1 fold. It also gave an MIC [5, 12] of 0.391 µg/mL, an MIC [5, 13] of 0.391 µg/mL and an MIC [6, 14] of 400 µg/mL. For the same compound, the MIC [6, 15] was 400 µg/mL, the “Fold change of MICs” value [7] was 1 fold and the MIC [7, 16] was 3.12 µg/mL. For the same compound, the MIC [7, 17] was 3.12 µg/mL, the MIC [8] was 3.12 µg/mL and the “Minimum inhibitory concentration (MIC), ΔtolC” value [8] was 3.125 µg/mL. The Effect ([9]; EKO-35 acrB, NMP + antibiotic) was “Synergistic”, the FICI ([9]; EKO-35 acrB, NMP + antibiotic) was 0.500 and the Effect ([9]; EKO-35 acrB, PAβN + antibiotic) was “Synergistic”. For the same compound, the FICI ([9]; EKO-35 acrB, PAβN + antibiotic) was 0.129, the “MICb Combined” value [9, 18] was 4 µg/mL and the Effect ([9]; EKO-35 acrD, NMP + antibiotic) was “Additive”. The FICI ([9]; EKO-35 acrD, NMP + antibiotic) was 0.563, the Effect ([9]; EKO-35 acrD, PAβN + antibiotic) was “Synergistic” and the FICI ([9]; EKO-35 acrD, PAβN + antibiotic) was 0.141. For the same compound, the “MICb Alone” value ([9]; EKO-35 acrD, antibiotic alone (PAβN checkerboard)) was 256 µg/mL, the “MICb Combined” value [9, 19] was 4 µg/mL and the Effect ([9]; EKO-35 acrEF, NMP + antibiotic) was “Additive”. For the same compound, the FICI ([9]; EKO-35 acrEF, NMP + antibiotic) was 0.750, the Effect [9, 20] was “Synergistic” and the “MICb Alone” value [9, 21] was 32 µg/mL. For the same compound, the “MICb Combined” value [9, 22] was 8 µg/mL, the Effect ([9]; EKO-35 mdtEF, NMP + antibiotic) was “Synergistic” and the Effect [9, 30] was “Synergistic”. The FICI [9, 30] was 0.250, the “MICb Alone” value ([9]; EKO-35 mdtEF, antibiotic alone (PAβN checkerboard)) was 64 µg/mL and the “MICb Combined” value ([9]; EKO-35 mdtEF, antibiotic in combination with PAβN) was 8 µg/mL. For the same compound, the Effect [9, 23] was “Synergistic (Synergy (FICI ≤0.5))”, the FICI [9, 23] was 0.500 and the “MICb Combined” value [9, 24] was 256 µg/mL. The Effect [9, 25] was “Additive (additive (FICI >0.5-1.0))”, the FICI [9, 25] was 0.563 and the “MICb Alone” value ([9]; strain EKO-35 acrD, antibiotic alone) was 256 µg/mL. For the same compound, the “MICb Combined” value [9, 26] was 16 µg/mL, the Effect [9, 27] was “Additive (additive (FICI >0.5-1.0))” and the FICI [9, 27] was 0.750. The “MICb Alone” value [9, 28] was 32 µg/mL, the “MICb Combined” value [9, 29] was 16 µg/mL and the Effect ([9]; strain EKO-35 mdtEF, NMP + antibiotic) was “Synergistic (Synergy (FICI ≤0.5))”. The “MICb Alone” value ([9]; strain EKO-35 mdtEF, antibiotic alone) was 64 µg/mL and the “MICb Combined” value ([9]; strain EKO-35 mdtEF, antibiotic in combination with NMP) was 8 µg/mL.

In the case of CC[n+]1c(-c2ccccc2)c2cc(N)ccc2c2ccc(N)cc21 [ethidium bromide], the MIC [1, 10] is reported as 100 µg/mL, the MIC [1, 11] is reported as 100 µg/mL and the MIC [2] is reported as 3.12 µg/mL. For the same compound, the “Minimum inhibitory concentration (MIC), Pore ΔtolC” value [2] was 3.125 µg/mL, the “Fold change of MICs” value [3] was 64 fold and the MIC [3] was 12.5 µg/mL. For the same compound, the “Fold change of MICs” value [4] was 8 fold, the MIC [4] was 1.56 µg/mL and the “Fold changes of MICs” value [5] was 1 fold. For the same compound, the MIC [5, 12] was 0.098 µg/mL, the MIC [5, 13] was 0.098 µg/mL and the MIC [6, 14] was 100 µg/mL. The MIC [6, 15] was 100 µg/mL, the “Fold change of MICs” value [7] was 1 fold and the MIC [7, 16] was 0.195 µg/mL. For the same compound, the MIC [7, 17] was 0.195 µg/mL, the MIC [8] was 3.12 µg/mL and the “Minimum inhibitory concentration (MIC), ΔtolC” value [8] was 3.125 µg/mL. For the same compound, the FICI ([9]; EKO-35 acrB, NMP + antibiotic) was 0.253, the FICI ([9]; EKO-35 acrEF, NMP + antibiotic) was 0.500 and the Effect [9, 23] was “Synergistic (Synergy (FICI ≤0.5))”. For the same compound, the FICI [9, 23] was 0.253, the “MICb Alone” value ([9]; strain EKO-35 acrB, antibiotic alone) was 15.6 µg/mL and the “MICb Combined” value [9, 24] was 2 µg/mL. For the same compound, the Effect [9, 27] was “Synergistic (Synergy (FICI ≤0.5))”, the FICI [9, 27] was 0.500 and the “MICb Alone” value [9, 28] was 2 µg/mL. The “MICb Combined” value [9, 29] was 0.5 µg/mL.
